Experiments:
Assay type in all cases: in vivo
barnyard grass [1] = experiment: Test Example 1: weedkilling efficacy, preemergent weed treatment in the submerged state; A: barnyard grass; conditions: treatment dosage 252 g/ha
Procedure, shortened: (§1)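 Pots of alluvial soil flooded 4 cm deep, sown with barnyard grass, bulrush and oval-leafed pondweed and transplanted with 2.5-leaf rice. Emulsified compound applied to the water surface on sowing day at stated g/ha; greenhouse 25–30 °C, effects assessed 3 weeks after treatment.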

bulrush [2] = experiment: Test Example 1: weedkilling efficacy, preemergent weed treatment in the submerged state; B: bulrush; conditions: treatment dosage 252 g/ha
Procedure, shortened: as §1

oval-leafed pondweed [3] = experiment: Test Example 1: weedkilling efficacy, preemergent weed treatment in the submerged state; C: oval-leafed pondweed; conditions: treatment dosage 252 g/ha
Procedure, shortened: as §1

transplanted rice = experiment: Test Example 1: preemergent weed treatment in the submerged state, effect on crop; a: transplanted rice; conditions: treatment dosage 252 g/ha
Procedure, shortened: as §1

barnyard grass [4] = experiment: Test Example 2: weedkilling efficacy, growth period weed treatment in the submerged state; A: barnyard grass; conditions: treatment dosage 252 g/ha
Procedure, shortened: (§2)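 Barnyard grass, bulrush and oval-leafed pondweed sown in alluvial soil under 4 cm flooding, greenhouse 25 to 30° C. At 1-2 leaf stage, water-diluted emulsion applied to the water surface at stated g/ha dosages; effects scored 3 weeks later.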

bulrush [5] = experiment: Test Example 2: weedkilling efficacy, growth period weed treatment in the submerged state; B: bulrush; conditions: treatment dosage 252 g/ha
Procedure, shortened: as §2

oval-leafed pondweed [6] = experiment: Test Example 2: weedkilling efficacy, growth period weed treatment in the submerged state; C: oval-leafed pondweed; conditions: treatment dosage 252 g/ha
Procedure, shortened: as §2

crabgrass = experiment: Test Example 3: weedkilling efficacy through soil treatment; D: crabgrass; conditions: soil treatment, treatment dosage 315 g/ha
Excerpt: (§3) Weedkilling Efficacy Test Through Soil Treatment
(§4) Sterilized diluvial soil was introduced into 21 cm long, 13 cm wide, 7 cm deep plastic boxes, and seeds of crabgrass, green foxtail, barnyard grass, wild oat, black-grass, Italian ryegrass, common wind-grass, Indian mallow, redroot pigweed, fig-leafed goosefoot, chickweed, catchweed, birds-eye speedwell, corn, soybean, rice, wheat, beet and rapeseed were each spot-sown, and covered with about 1.5 cm of soil. Next, emulsions of compounds of the present invention prepared according to compounding example 2 were diluted with water to give the specified dosages, and applied uniformly onto the soil surface with a small sprayer. The plants were grown by placing the plastic boxes in a greenhouse at 25 to 30° C., and 3 weeks after the pesticide treatment the effect on each type of plant was investigated on the basis of the assessment criteria of test example 1.
(§5) A: barnyard grass, B: bulrush, C: oval-leafed pondweed, D: crabgrass, E: green foxtail, F: barnyard grass, G: wild oat, H: black-grass, I: Italian ryegrass, J: common wind-grass, K: Indian mallow, L: redroot pigweed, M: fig-leafed goosefoot, N: chickweed, O: catchweed, p: birds-eye speedwell, a: transplanted rice, b: directly sown rice, c: corn, d: soybean, e: wheat, f: beet, g: rapeseed
(§6) Further, pesticide dosage (g/ha) indicates the concentration regulated such that treatment was with only the stated number of grams (g), when calculated per hectare (ha).

green foxtail = experiment: Test Example 3: weedkilling efficacy through soil treatment; E: green foxtail; conditions: soil treatment, treatment dosage 315 g/ha
Excerpt: as §3, §4, §5, §6

wild oat = experiment: Test Example 3: weedkilling efficacy through soil treatment; G: wild oat; conditions: soil treatment, treatment dosage 315 g/ha
Excerpt: as §3, §4, §5, §6

black-grass = experiment: Test Example 3: weedkilling efficacy through soil treatment; H: black-grass; conditions: soil treatment, treatment dosage 315 g/ha
Excerpt: as §3, §4, §5, §6

Italian ryegrass = experiment: Test Example 3: weedkilling efficacy through soil treatment; I: Italian ryegrass; conditions: soil treatment, treatment dosage 315 g/ha
Excerpt: as §3, §4, §5, §6

Indian mallow = experiment: Test Example 3: weedkilling efficacy through soil treatment; K: Indian mallow; conditions: soil treatment, treatment dosage 315 g/ha
Excerpt: as §3, §4, §5, §6

redroot pigweed = experiment: Test Example 3: weedkilling efficacy through soil treatment; L: redroot pigweed; conditions: soil treatment, treatment dosage 315 g/ha
Excerpt: as §3, §4, §5, §6

fig-leafed goosefoot = experiment: Test Example 3: weedkilling efficacy through soil treatment; M: fig-leafed goosefoot; conditions: soil treatment, treatment dosage 315 g/ha
Excerpt: as §3, §4, §5, §6

chickweed = experiment: Test Example 3: weedkilling efficacy through soil treatment; N: chickweed; conditions: soil treatment, treatment dosage 315 g/ha
Excerpt: as §3, §4, §5, §6

birds-eye speedwell = experiment: Test Example 3: weedkilling efficacy through soil treatment; p: birds-eye speedwell; conditions: soil treatment, treatment dosage 315 g/ha
Excerpt: as §3, §4, §5, §6

directly sown rice = experiment: Test Example 3: soil treatment, effect on crop; b: directly sown rice; conditions: soil treatment, treatment dosage 315 g/ha
Excerpt: as §3, §4, §5, §6

corn = experiment: Test Example 3: soil treatment, effect on crop; c: corn; conditions: soil treatment, treatment dosage 315 g/ha
Excerpt: as §3, §4, §5, §6

soybean = experiment: Test Example 3: soil treatment, effect on crop; d: soybean; conditions: soil treatment, treatment dosage 315 g/ha
Excerpt: as §3, §4, §5, §6

wheat = experiment: Test Example 3: soil treatment, effect on crop; e: wheat; conditions: soil treatment, treatment dosage 315 g/ha
Excerpt: as §3, §4, §5, §6

beet = experiment: Test Example 3: soil treatment, effect on crop; f: beet; conditions: soil treatment, treatment dosage 315 g/ha
Excerpt: as §3, §4, §5, §6

SMILES | A: barnyard grass, weed kill grade (barnyard grass [1]) | B: bulrush, weed kill grade (bulrush [2]) | C: oval-leafed pondweed, weed kill grade (oval-leafed pondweed [3]) | a: transplanted rice, effect on crop grade (transplanted rice) | A (barnyard grass) weedkilling efficacy grade (barnyard grass [4]) | B (bulrush) weedkilling efficacy grade (bulrush [5]) | C (oval-leafed pondweed) weedkilling efficacy grade (oval-leafed pondweed [6]) | D: crabgrass, weedkilling efficacy grade (crabgrass) | E: green foxtail, weedkilling efficacy grade (green foxtail) | G: wild oat, weedkilling efficacy grade (wild oat) | H: black-grass, weedkilling efficacy grade (black-grass) | I: Italian ryegrass, weedkilling efficacy grade (Italian ryegrass) | K: Indian mallow, weedkilling efficacy grade (Indian mallow) | L: redroot pigweed, weedkilling efficacy grade (redroot pigweed) | M: fig-leafed goosefoot, weedkilling efficacy grade (fig-leafed goosefoot) | N: chickweed, weedkilling efficacy grade (chickweed) | P: birds-eye speedwell, weedkilling efficacy grade (birds-eye speedwell) | b: directly sown rice, effect on crop grade (directly sown rice) | c: corn, effect on crop grade (corn) | d: soybean, effect on crop grade (soybean) | other results
CC(C)(C(=O)Nc1ncc(Cl)s1)N1COCN(c2ccccc2)C1=O [A-1-07] | 5 (weed kill ratio 90% or more, (practically complete withering)) | 5 (weed kill ratio 90% or more, (practically complete withering)) | 5 (weed kill ratio 90% or more, (practically complete withering)) | 0 (weed kill ratio 5% or less (practically no effect)) | 5 (weed kill ratio 90% or more, (practically complete withering)) | 5 (weed kill ratio 90% or more, (practically complete withering)) | 5 (weed kill ratio 90% or more, (practically complete withering)) | 5 (weed kill ratio 90% or more, (practically complete withering)) | 5 (weed kill ratio 90% or more, (practically complete withering)) | 5 (weed kill ratio 90% or more, (practically complete withering)) | 5 (weed kill ratio 90% or more, (practically complete withering)) | 5 (weed kill ratio 90% or more, (practically complete withering)) | 4 (weed kill ratio 70% or more, less than 90%) | 5 (weed kill ratio 90% or more, (practically complete withering)) | 4 (weed kill ratio 70% or more, less than 90%) | 4 (weed kill ratio 70% or more, less than 90%) | 5 (weed kill ratio 90% or more, (practically complete withering)) | 5 (weed kill ratio 90% or more, (practically complete withering)) | 3 (weed kill ratio 40% or more, less than 70%) | 1 (weed kill ratio 5% or more, less than 20%) | e: wheat, effect on crop grade (wheat): 2 (weed kill ratio 20% or more, less than 40%); f: beet, effect on crop grade (beet): 5 (weed kill ratio 90% or more, (practically complete withering))
CC(C)(C(=O)Nc1ccccn1)N1COCN(c2ccccc2)C1=O [A-2-01] | 5 (weed kill ratio 90% or more, (practically complete withering)) | 5 (weed kill ratio 90% or more, (practically complete withering)) | 4 (weed kill ratio 70% or more, less than 90%) | 0 (weed kill ratio 5% or less (practically no effect)) | 3 (weed kill ratio 40% or more, less than 70%) | 5 (weed kill ratio 90% or more, (practically complete withering)) | 2 (weed kill ratio 20% or more, less than 40%) | 4 (weed kill ratio 70% or more, less than 90%) | 4 (weed kill ratio 70% or more, less than 90%) | 2 (weed kill ratio 20% or more, less than 40%) | 5 (weed kill ratio 90% or more, (practically complete withering)) | 5 (weed kill ratio 90% or more, (practically complete withering)) | 0 (weed kill ratio 5% or less (practically no effect)) | 3 (weed kill ratio 40% or more, less than 70%) | 4 (weed kill ratio 70% or more, less than 90%) | 3 (weed kill ratio 40% or more, less than 70%) | 5 (weed kill ratio 90% or more, (practically complete withering)) | 3 (weed kill ratio 40% or more, less than 70%) | 0 (weed kill ratio 5% or less (practically no effect)) | 2 (weed kill ratio 20% or more, less than 40%) | e: wheat, effect on crop grade (wheat): 0 (weed kill ratio 5% or less (practically no effect)); f: beet, effect on crop grade (beet): 0 (weed kill ratio 5% or less (practically no effect))
CC(C)(C(=O)Nc1cccc(F)n1)N1COCN(c2ccccc2)C1=O [A-2-05] | 5 (weed kill ratio 90% or more, (practically complete withering)) | 5 (weed kill ratio 90% or more, (practically complete withering)) | 5 (weed kill ratio 90% or more, (practically complete withering)) | 3 (weed kill ratio 40% or more, less than 70%) | 4 (weed kill ratio 70% or more, less than 90%) | 5 (weed kill ratio 90% or more, (practically complete withering)) | 4 (weed kill ratio 70% or more, less than 90%) | 5 (weed kill ratio 90% or more, (practically complete withering)) | 5 (weed kill ratio 90% or more, (practically complete withering)) | 5 (weed kill ratio 90% or more, (practically complete withering)) | 5 (weed kill ratio 90% or more, (practically complete withering)) | 5 (weed kill ratio 90% or more, (practically complete withering)) | 3 (weed kill ratio 40% or more, less than 70%) | 5 (weed kill ratio 90% or more, (practically complete withering)) | 4 (weed kill ratio 70% or more, less than 90%) | 4 (weed kill ratio 70% or more, less than 90%) | 5 (weed kill ratio 90% or more, (practically complete withering)) | 5 (weed kill ratio 90% or more, (practically complete withering)) | 4 (weed kill ratio 70% or more, less than 90%) | 4 (weed kill ratio 70% or more, less than 90%) | e: wheat, effect on crop grade (wheat): 4 (weed kill ratio 70% or more, less than 90%); f: beet, effect on crop grade (beet): 5 (weed kill ratio 90% or more, (practically complete withering))

— patent publication US9738634B2, “Heterocyclic amide compound and herbicide” (SYNGENTA PARTICIPATIONS AG, priority 2013, dated 2017)
